# Measurements: patent publication US4966900A, “Cephalosporin β-lactam compound and medicinal composition” (priority 1986, dated 1990)
# Where a name gives a salt, the structure may show the parent alone. Read-outs that look alike come from different tables or passages of the source.
# How the values were obtained:
# E. cloacae 908RN = assay: MIC; conditions: Enterobacter cloacae
# C. freundii 1R523 = assay: MIC
# E. coli ML4707 = assay: MIC; conditions: Escherichia coli, ML4707, E. coli ML4707
# C. freundii 1R527 = assay: MIC
# C. freundii 5D60-1 = assay: MIC
# E. colacae GN7471 = assay: MIC
# S. aureus Smith = assay: MIC; conditions: Staphylococcus aureus
# E. cloacae 5D52-2 = assay: MIC
# A. xylosoxidans OF1001 = assay: MIC; format: cell-based; conditions: Achromobacter xylosoxidans, Table 2, sodium salt
# Method: (§1) The minimum inhibition concentrations (MIC) of the compounds obtained in Example 1 and Example 2 were measured according to the standard method of Japanese Chemotherapy Association.
# A. calcoaceticu OF1063 = assay: MIC; format: cell-based; conditions: Table 2, sodium salt
# Method: as §1
# E. coli NIHJ JC-2 = assay: MIC; format: cell-based; conditions: Escherichia coli, NIHJJC2, Table 2, sodium salt
# Method: as §1
# P. cepacia OF189 = assay: MIC; conditions: Burkholderia cepacia, OF189, P. cepacia OF189
# C. freundii GN7391 = assay: MIC; conditions: Citrobacter freundii, GN7391, C. freundii GN7391
# P. aeruginosa 4au542 = assay: MIC; conditions: Pseudomonas aeruginosa, 4AU542, P. aeruginosa 4au542
# E. cloacae 1Y247 = assay: MIC; format: cell-based
# Method: (§2) The minimum inhibition concentrations (MIC) of the compounds obtained in the respective examples described above were measured according to the standard method of Japanese Chemotherapy Association.
# S. aureus IAA498 = assay: MIC; format: cell-based; conditions: Staphylococcus aureus, Table 5
# Method: as §2
# C. freundii 1R526 = assay: MIC
# P. aeruginosa 5D58-1 = assay: MIC; conditions: Pseudomonas aeruginosa, 5D581, P. aeruginosa 5D58-1
# P. aeruginosa GN10362 = assay: MIC
# K. pneumoniae 4at521 = assay: MIC
# C. freundii 1U692 = assay: MIC
# E. coli GN5482 = assay: MIC; conditions: Escherichia coli, GN5482, E. coli GN5482
# S. marcescens GN10857 = assay: MIC; conditions: Serratia marcescens, GN10857, S. marcescens GN10857
# P. vulgaris GN7919 = assay: MIC
# C. freundii 1R524 = assay: MIC
# E. cloacae 5D63-2 = assay: MIC
# C. freundii 1U589 = assay: MIC
# P. maltophilia OF247 = assay: MIC; conditions: Stenotrophomonas maltophilia
# in vivo = assay: in vivo; design: species or system Macaco; conditions: monkey, 20 mg/kg
# Method: Each of 20 mg/kg of the compounds obtained in Example 2, Example 25 and Example 28 was administered parenterally to Macaco and the half-time in blood was measured.
# The concentrations of the compounds were measured according to HPLC method. Novapack C18 or Microbondapack C18 (trade name, produced by Waters Co.) was used as a column. Further, cefpiramide was used as a control drug.
# E. cloacae 1V25 = assay: MIC; conditions: Enterobacter cloacae
# [1] = E. cloacae 908RN, Table 3, sodium salt
# [2] = E. colacae 908RN, Table 2, sodium salt
# [3] = Enterobacter cloacae, Table 3, sodium salt, read-out: MIC
# [4] = Pseudomonas aeruginosa, GN10362
smiles,measurement,setting,value
"Cc1cc(SCC2=C(C(=O)O)N3C(=O)C(NC(=O)C(=NOC(C)(C)C(=O)NNC(=O)c4ccc(O)c(O)c4)c4csc(N)n4)C3SC2)n2ncnc2n1 (centres unmarked) [Example 12, 7-{2-[2-Amino-1,3-thiazol-4-yl]-2-[1-(3-(3,4-dihydroxybenzoyl)carbazoyl)-1-methylethoxyimino]acetamide}-3-[(5-methyl-s-triazolo[1,5-a]-pyrimidin-7-yl)thiomethyl]-3-cephem-4-carboxylic acid.hydrochloride]",MIC,E. cloacae 908RN; [1],3.13 µg/mL
same,MIC,"E. cloacae 908RN; E. cloacae 908RN, Table 6",3.13 µg/mL
same,MIC,E. cloacae 908RN; [2],3.13 µg/mL
same,MIC,"E. cloacae 908RN; E. colacae 908RN, Table 5",3.13 µg/mL
same,MIC,"C. freundii 1R523; C. freundii 1R523, Table 6",0.78 µg/mL
same,MIC,"C. freundii 1R523; Citrobacter freundii, 1R523",0.78 µg/mL
same,MIC,"E. coli ML4707; Table 2, sodium salt",0.012 µg/mL
same,MIC,E. coli ML4707; Table 5,< 0.006 µg/mL
same,MIC,"C. freundii 1R527; C. freundii 1R527, Table 6",0.78 µg/mL
same,MIC,"C. freundii 1R527; Citrobacter freundii, 1R527",0.78 µg/mL
same,MIC,"C. freundii 5D60-1; C. freundii 5D60-1, Table 6",3.13 µg/mL
same,MIC,"C. freundii 5D60-1; Citrobacter freundii, 5D601",3.13 µg/mL
same,MIC,"E. colacae GN7471; Table 2, sodium salt",3.13 µg/mL
same,MIC,E. colacae GN7471; Table 5,1.56 µg/mL
same,MIC,"S. aureus Smith; Table 2, sodium salt",0.78 µg/mL
same,MIC,S. aureus Smith; Table 5,3.13 µg/mL
same,MIC,"E. cloacae 5D52-2; E. cloacae 5D52-2, Table 6",0.2 µg/mL
same,MIC,"E. cloacae 5D52-2; Enterobacter cloacae, 5D522",0.2 µg/mL
same,MIC,A. xylosoxidans OF1001,0.78 µg/mL
same,MIC,A. calcoaceticu OF1063,12.5 µg/mL
same,MIC,E. coli NIHJ JC-2,0.1 µg/mL
same,MIC,"P. cepacia OF189; Table 2, sodium salt",0.025 µg/mL
same,MIC,P. cepacia OF189; Table 5,0.012 µg/mL
same,MIC,"C. freundii GN7391; Table 2, sodium salt",12.5 µg/mL
same,MIC,"C. freundii GN7391; Table 3, sodium salt",25 µg/mL
same,MIC,C. freundii GN7391; Table 5,6.25 µg/mL
same,MIC,C. freundii GN7391; Table 6,25 µg/mL
same,MIC,"P. aeruginosa 4au542; Table 2, sodium salt",0.1 µg/mL
same,MIC,P. aeruginosa 4au542; Table 5,0.2 µg/mL
same,MIC,E. cloacae 1Y247; [3],25 µg/mL
same,MIC,E. cloacae 1Y247; Table 6,25 µg/mL
same,MIC,S. aureus IAA498,6.25 µg/mL
same,MIC,"C. freundii 1R526; C. freundii 1R526, Table 6",1.56 µg/mL
same,MIC,"C. freundii 1R526; Citrobacter freundii, 1R526",1.56 µg/mL
same,MIC,"P. aeruginosa 5D58-1; Table 2, sodium salt",0.1 µg/mL
same,MIC,P. aeruginosa 5D58-1; Table 5,0.2 µg/mL
same,MIC,"P. aeruginosa GN10362; P. aeruginosa GN10362, Table 5",0.1 µg/mL
same,MIC,P. aeruginosa GN10362; [4],0.1 µg/mL
same,MIC,"K. pneumoniae 4at521; K. pneumoniae 4at521, Table 5",0.012 µg/mL
same,MIC,"K. pneumoniae 4at521; Klebsiella pneumoniae, 4AT521",0.012 µg/mL
same,MIC,"C. freundii 1U692; C. freundii 1U692, Table 6",3.13 µg/mL
same,MIC,"C. freundii 1U692; Citrobacter freundii, 1U692",3.13 µg/mL
same,MIC,"E. coli GN5482; Table 2, sodium salt",0.1 µg/mL
same,MIC,E. coli GN5482; Table 5,0.012 µg/mL
same,MIC,"S. marcescens GN10857; Table 2, sodium salt",1.56 µg/mL
same,MIC,S. marcescens GN10857; Table 5,0.39 µg/mL
same,MIC,"P. vulgaris GN7919; P. vulgaris Gn7919, Table 5",0.78 µg/mL
same,MIC,"P. vulgaris GN7919; Proteus vulgaris, GN7919",0.78 µg/mL
same,MIC,"C. freundii 1R524; C. freundii 1R524, Table 6",0.78 µg/mL
same,MIC,"C. freundii 1R524; Citrobacter freundii, 1R524",0.78 µg/mL
same,MIC,"E. cloacae 5D63-2; E. cloacae 5D63-2, Table 6",3.13 µg/mL
same,MIC,"E. cloacae 5D63-2; Enterobacter cloacae, 5D632",3.13 µg/mL
same,MIC,"C. freundii 1U589; C. freundii 1U589, Table 6",1.56 µg/mL
same,MIC,"C. freundii 1U589; Citrobacter freundii, 1U589",1.56 µg/mL
same,MIC,"P. maltophilia OF247; Table 2, sodium salt",0.78 µg/mL
same,MIC,P. maltophilia OF247; Table 5,0.39 µg/mL
Cc1cc(SCC2=C(C(=O)O)N3C(=O)C(NC(=O)C(=NOC(C)(C)C(=O)NNC(=O)c4ccc(O)c(O)c4)c4csc(N)n4)C3SC2)n2nc(C(=O)O)nc2n1 (centres unmarked) [Example 2],MIC,E. cloacae 908RN; [1],3.13 µg/mL
same,MIC,E. cloacae 908RN; [2],1.56 µg/mL
same,MIC,"C. freundii 1R523; Citrobacter freundii, 1R523",1.56 µg/mL
same,MIC,"E. coli ML4707; Table 2, sodium salt",0.01 µg/mL
same,MIC,"C. freundii 1R527; Citrobacter freundii, 1R527",0.78 µg/mL
same,half-life,in vivo,5.3 h
same,MIC,"C. freundii 5D60-1; Citrobacter freundii, 5D601",1.56 µg/mL
same,MIC,E. cloacae 1V25,6.25 µg/mL
same,MIC,"E. colacae GN7471; Table 2, sodium salt",6.25 µg/mL
same,MIC,"S. aureus Smith; Table 2, sodium salt",6.25 µg/mL
same,MIC,"E. cloacae 5D52-2; Enterobacter cloacae, 5D522",0.2 µg/mL
same,MIC,A. xylosoxidans OF1001,0.78 µg/mL
same,MIC,A. calcoaceticu OF1063,3.13 µg/mL
same,MIC,E. coli NIHJ JC-2,0.1 µg/mL
same,MIC,"P. cepacia OF189; Table 2, sodium salt",< 0.006 µg/mL
same,MIC,"C. freundii GN7391; Table 2, sodium salt",12.5 µg/mL
same,MIC,"C. freundii GN7391; Table 3, sodium salt",12.5 µg/mL
same,MIC,"P. aeruginosa 4au542; Table 2, sodium salt",0.2 µg/mL
same,MIC,E. cloacae 1Y247; [3],6.25 µg/mL
same,MIC,"C. freundii 1R526; Citrobacter freundii, 1R526",0.78 µg/mL
same,MIC,"P. aeruginosa 5D58-1; Table 2, sodium salt",0.39 µg/mL
same,MIC,P. aeruginosa GN10362; [4],0.2 µg/mL
same,MIC,"K. pneumoniae 4at521; Klebsiella pneumoniae, 4AT521",0.012 µg/mL
same,MIC,"C. freundii 1U692; Citrobacter freundii, 1U692",1.56 µg/mL
same,MIC,"E. coli GN5482; Table 2, sodium salt",0.1 µg/mL
same,MIC,"S. marcescens GN10857; Table 2, sodium salt",0.2 µg/mL
same,MIC,"P. vulgaris GN7919; Proteus vulgaris, GN7919",0.78 µg/mL
same,MIC,"C. freundii 1R524; Citrobacter freundii, 1R524",0.78 µg/mL
same,MIC,"E. cloacae 5D63-2; Enterobacter cloacae, 5D632",0.78 µg/mL
same,MIC,"C. freundii 1U589; Citrobacter freundii, 1U589",0.78 µg/mL
same,MIC,"P. maltophilia OF247; Table 2, sodium salt",0.2 µg/mL
"Cc1cc(SCC2=C(C(=O)O)N3C(=O)C(NC(=O)C(=NOC(C)(C)C(=O)NNC(=O)c4ccc(O)c(O)c4)c4csc(N)n4)C3SC2)n2ncc(C(=O)O)c2n1 (centres unmarked) [Example 25, 7-{2-[2-amino-1,3-thiazol-4-yl]-2-[1-(3-(3,4-dihydroxybenzoyl)carbazoyl)-1-methylethoxyimino]acetamide}-3-[(3-carboxy-5-methylpyrazolo[1,5-a]pyrimidin-7-yl)thiomethyl]-3-cephem-4-carboxylic acid.hydrochloride]",MIC,"E. cloacae 908RN; E. cloacae 908RN, Table 6",3.13 µg/mL
same,MIC,"E. cloacae 908RN; E. colacae 908RN, Table 5",1.56 µg/mL
same,MIC,"C. freundii 1R523; Citrobacter freundii, 1R523",0.2 µg/mL
same,MIC,E. coli ML4707; Table 5,< 0.006 µg/mL
same,MIC,"C. freundii 1R527; Citrobacter freundii, 1R527",0.1 µg/mL
same,half-life,in vivo,4 h
same,MIC,"C. freundii 5D60-1; Citrobacter freundii, 5D601",0.78 µg/mL
same,MIC,E. cloacae 1V25,6.25 µg/mL
same,MIC,E. colacae GN7471; Table 5,3.13 µg/mL
same,MIC,S. aureus Smith; Table 5,6.25 µg/mL
same,MIC,"E. cloacae 5D52-2; Enterobacter cloacae, 5D522",0.39 µg/mL
same,MIC,P. cepacia OF189; Table 5,< 0.006 µg/mL
same,MIC,C. freundii GN7391; Table 5,6.25 µg/mL
same,MIC,C. freundii GN7391; Table 6,6.25 µg/mL
same,MIC,P. aeruginosa 4au542; Table 5,0.1 µg/mL
same,MIC,"E. cloacae 1Y247; Enterobacter cloacae, Table 6, read-out: MIC",12.5 µg/mL
same,MIC,S. aureus IAA498,12.5 µg/mL
same,MIC,"C. freundii 1R526; Citrobacter freundii, 1R526",0.2 µg/mL
same,MIC,P. aeruginosa 5D58-1; Table 5,0.05 µg/mL
same,MIC,P. aeruginosa GN10362; [4],0.025 µg/mL
same,MIC,"K. pneumoniae 4at521; Klebsiella pneumoniae, 4AT521",< 0.006 µg/mL
same,MIC,"C. freundii 1U692; Citrobacter freundii, 1U692",0.39 µg/mL
same,MIC,E. coli GN5482; Table 5,< 0.006 µg/mL
same,MIC,S. marcescens GN10857; Table 5,0.1 µg/mL
same,MIC,"P. vulgaris GN7919; Proteus vulgaris, GN7919",0.39 µg/mL
same,MIC,"C. freundii 1R524; Citrobacter freundii, 1R524",0.1 µg/mL
same,MIC,"E. cloacae 5D63-2; Enterobacter cloacae, 5D632",0.39 µg/mL
same,MIC,"C. freundii 1U589; Citrobacter freundii, 1U589",0.39 µg/mL
same,MIC,P. maltophilia OF247; Table 5,0.1 µg/mL
